# Source: patent publication US12528837B2, “Aryl substituted polymyxin derivatives” (priority 2018, dated 2026)
# Where two headings read alike, the source gives them in different places. Where a SMILES comes first, the peptide text is derived from it. Bridges are numbered along the chain shown (N, C = ends). [ ]: non-standard residue; d: D form. The star is where a group is joined. X16 = NC[C@H](CC(=O)*)Cc1cccc(Cl)c1; X15 = NC[C@@H](CC(=O)*)c1ccccc1Cl; X11 = NC[C@H](CC(=O)*)c1ccccc1Cl; Dab = NCC[C@H](N)C(=O)O; Dap = NC[C@H](N)C(=O)O
# How the values were obtained:
# Format in all cases: cell-based
# E. coli CA58 = system: E. coli CA58
# Description: (§1) The inoculum was prepared by making a direct suspension of isolated colonies (selected from an 18-24 hour Mueller-Hinton agar plate) adjusted to the 0.5 McFarland standard. […] The assays were performed in duplicate. […] Several of the compounds were subjected to multiple tests, and where this is the case, the MIC presented is the median value obtained. The MIC values are quoted in μg/mL.
# K. pneumoniae CA64 = system: K. pneumoniae CA64
# Description: as §1
# P. aeruginosa CCUG 59347 = system: P. aeruginosa CCUG 59347
# Description: as §1
# A. baumannii NCTC 13424 = system: A. baumannii NCTC 13424
# Description: (§2) The inoculum was prepared by making a direct suspension of isolated colonies (selected from an 18-24 hour Mueller-Hinton agar plate) adjusted to the 0.5 McFarland standard. […] The assays were performed in duplicate. […] The MIC values are quoted in μg/mL.
# [1] = system: A. baumannii ATCC BAA-747
# Description: as §2
# P. aeruginosa ATCC 27853 = conditions: cation-adjusted Mueller-Hinton Broth, 18-20 h, 35° C.
# Description: as §2
# E. coli ATCC 25922 = system: E. coli ATCC 25922
# Description: as §2
# K. pneumoniae ATCC 13822 = system: K. pneumoniae ATCC 13822
# Description: as §2
# [2] = cation-adjusted Mueller-Hinton Broth, 18-20 h, 35° C.
SMILES,MIC E. coli CA58 (E. coli CA58; [2]) [µg/mL],MIC K. pneumoniae CA64 (K. pneumoniae CA64; [2]) [µg/mL],MIC P. aeruginosa CCUG 59347 (P. aeruginosa CCUG 59347; [2]) [µg/mL],MIC A. baumannii NCTC 13424 (A. baumannii NCTC 13424; [2]) [µg/mL],"MIC A. baumannii ATCC BAA-747 [1, 2] [µg/mL]",MIC P. aeruginosa ATCC 27853 (P. aeruginosa ATCC 27853) [µg/mL],MIC E. coli ATCC 25922 (E. coli ATCC 25922; [2]) [µg/mL],MIC K. pneumoniae ATCC 13822 (K. pneumoniae ATCC 13822; [2]) [µg/mL],MIC E. coli CA58 (E. coli CA58; CA58) [µg/mL],MIC K. pneumoniae CA64 (K. pneumoniae CA64; CA64) [µg/mL],MIC P. aeruginosa CCUG 59347 (P. aeruginosa CCUG 59347; CCUG 59347) [µg/mL],MIC A. baumannii NCTC 13424 (A. baumannii NCTC 13424; NCTC 13424) [µg/mL],MIC A. baumannii ATCC BAA-747 ([1]; ATCC BAA-747) [µg/mL],MIC E. coli ATCC 25922 (E. coli ATCC 25922; ATCC 25922) [µg/mL],MIC K. pneumoniae ATCC 13822 (K. pneumoniae ATCC 13822; ATCC 13822) [µg/mL]
"CC(C)C[C@@H]1NC(=O)[C@@H](Cc2ccccc2)NC(=O)[C@H](CCN)NC(=O)[C@@H](NC(=O)[C@H](CN)NC(=O)[C@@H](NC(=O)C[C@H](CN)c2ccccc2Cl)[C@@H](C)O)CCNC(=O)[C@H]([C@@H](C)O)NC(=O)[C@H](CCN)NC(=O)[C@H](CCN)NC1=O [Example 3, (S)-4-amino-3-(2- chlorophenyl)butanoyl- Thr-Dap-Cyclo[Dab- Dab-DPhe-Leu-Dab- Dab-Thr]] (X15-T[Dap][Dab][Dab][dF]L[Dab][Dab]T; lactam 3-C)",32,65,0.5,1,2,0.5,1,0.5,–,–,–,–,–,–,–
"CC(C)C[C@@H]1NC(=O)[C@@H](Cc2ccccc2)NC(=O)[C@H](CCN)NC(=O)[C@@H](NC(=O)[C@H](CN)NC(=O)[C@@H](NC(=O)C[C@@H](CN)c2ccccc2Cl)[C@@H](C)O)CCNC(=O)[C@H]([C@@H](C)O)NC(=O)[C@H](CCN)NC(=O)[C@H](CCN)NC1=O [Example 4, (R)-4-amino-3-(2- chlorophenyl)butanoyl- Thr-Dap-Cyclo[Dab- Dab-DPhe-Leu-Dab- Dab-Thr]] (X11-T[Dap][Dab][Dab][dF]L[Dab][Dab]T; lactam 3-C)",16,16,0.5,1,1,0.25,0.5,0.25,–,–,–,–,–,–,–
"CC(C)C[C@@H]1NC(=O)[C@@H](Cc2ccccc2)NC(=O)[C@H](CCN)NC(=O)[C@@H](NC(=O)[C@H](CN)NC(=O)[C@@H](NC(=O)C[C@@H](CN)Cc2cccc(Cl)c2)[C@@H](C)O)CCNC(=O)[C@H]([C@@H](C)O)NC(=O)[C@H](CCN)NC(=O)[C@H](CCN)NC1=O [Example 12, (S)-4-amino-3-(3- chlorobenzyl)butanoyl- Thr-Dap-Cyclo[Dab- Dab-DPhe-Leu-Dab- Dab-Thr]. Isomer 2] (X16-T[Dap][Dab][Dab][dF]L[Dab][Dab]T; lactam 3-C)",–,–,–,–,–,–,–,–,4,8,0.5,0.25,0.25,0.5,0.5
